The results in this text go back to publication PMC10897929 (2024).

Structures are written as SMILES.

Experiment [1] has as its system CSS.3_cut3 (DNA, aptamer) GGACGACGCCAGAAGTTTACGAGGATATGGTAACATAGTCGT
Description: BLI, steady state fit. To be noted: Na+ 123 mM (NaCl), K+ 3.5 mM, Ca2+ 2.5 mM, Mg2+ 0.7 mM; sISF, 10 mM HEPES, 30 °C. (In BLI a coated tip is dipped into the sample, and binding shifts an interference pattern.)

Experiment [2] deals with CSS.3_cut5 (DNA, aptamer) GGACGACGCCAGAAGTTTACGAGGATATGGTAACATAGTC
The experiment in a line: BLI, steady state fit. The conditions noted are these: Na+ 123 mM (NaCl), K+ 3.5 mM, Ca2+ 2.5 mM, Mg2+ 0.7 mM; sISF, 10 mM HEPES, 30 °C.

In general, KD refers to the constant that tells how readily two partners part at equilibrium. A low value points to tighter binding. Turning to `C[C@]12CCC(=O)C=C1CC[C@@H]1[C@@H]2[C@@H](O)C[C@@]2(C)[C@H]1CC[C@]2(O)C(=O)CO`, the figures for the KD in experiment [1] and in experiment [2] were 990 nM and 4200 nM, respectively.
